{
  "source": "patent US20090170846A1",
  "about": "“INHIBITORS OF THE HIV INTEGRASE ENZYME” (Pfizer Inc, priority 2005, published 2009)",
  "data": [
    {"tested_on": "RF strain of HIV-1 in CEM-SS cells", "assay": "HIV-1 cell protection assay (XTT dye reduction)", "format": "cell-based", "details": "Human immunodeficiency virus 1, 144 h; HIV-1 RF, CEM-SS cells, XTT, six days; read-out: EC50", "method": "HIV-1 Cell Protection Assay\nThe antiviral activities of potential modulator compounds (test compounds) were determined in HIV-1 cell protection assays using the RF strain of HIV-1, CEM-SS cells, and the XTT dye reduction method (Weislow, O, S. et al., J. Natl. Cancer Inst 81: 577-586 (1989)). Subject cells were infected with HIV-1 RF virus at an moi of to affect about a 90% kill (for example, an moi in the range of from about 0.025 to about 0.819) or mock infected with medium only and added at 2×10^4 cells per well, with the addition of approximately 200 μL of medium, into 96 well plates containing half-log dilutions of test compounds. Six days later, 50 μl of XTT solution (1 mg/ml XTT tetrazolium and 20 nM phenazine methosulfate) were added to the wells and the plates were reincubated for four hours. Viability, as determined by the amount of XTT formazan produced, was quantified spectrophotometrically by absorbance at 450 nm.\nData from CPE assays were expressed as the percent of formazan produced in compound-treated cells compared to formazan produced in wells of uninfected, compound-free cells. The fifty percent effective concentration (EC50) was calculated as the concentration of compound that affected an increase in the percentage of formazan production in infected, compound-treated cells to 50% of that produced by uninfected, compound-free cells. The 50% cytotoxicity concentration (CC50) was calculated as the concentration of compound that decreased the percentage of formazan produced in uninfected, compound-treated cells to 50% of that produced in uninfected, compound-free cells. The therapeutic index was calculated by dividing the cytotoxicity (CC50) by the antiviral activity (EC50).", "units": {"EC50": "nM"}, "values": [
      {"smiles": "CC(=O)Nc1cn(Cc2ccc(F)cc2)c2cnc(C(=O)N(C)O)cc12", "note": "[Example 2, 3-(acetylamino)-1-(4-fluorobenzyl)-N-hydroxy-N-methyl-1H-pyrrolo[2,3-c]pyridine-5-carboxamide]", "EC50": 20},
      {"smiles": "CCN(CC)S(=O)(=O)c1cn(Cc2ccc(F)cc2)c2cnc(C(=O)NOC)cc12", "note": "[Example 49, 3-[(diethylamino)sulfonyl]-1-(4-fluorobenzyl)-N-methoxy-1H-pyrrolo[2,3-c]pyridine-5-carboxamide]", "EC50": 17},
      {"smiles": "CN(O)C(=O)c1cc2c(S(=O)(=O)NCCCO)cn(Cc3ccc(F)cc3)c2cn1", "note": "[Example 50, 1-(4-fluorobenzyl)-N-hydroxy-3-{[(3-hydroxypropyl)amino]sulfonyl}-N-methyl-1H-pyrrolo[2,3-c]pyridine-5-carboxamide]", "EC50": 460},
      {"smiles": "CONC(=O)c1cc2c(S(=O)(=O)NCCCO)cn(Cc3ccc(F)cc3)c2cn1", "note": "[Example 51, 1-(4-fluorobenzyl)-3-{[(3-hydroxypropyl)amino]sulfonyl}-N-methoxy-1H-pyrrolo[2,3-c]pyridine-5-carboxamide]", "EC50": 110},
      {"smiles": "CONC(=O)c1cc2c(S(=O)(=O)Nc3cccnc3OC)cn(Cc3ccc(F)cc3)c2cn1", "note": "[Example 52, 1-(4-fluorobenzyl)-N-methoxy-3-{[(2-methoxypyridin-3-yl)amino]sulfonyl}-1H-pyrrolo[2,3-c]pyridine-5-carboxamide]", "EC50": 52},
      {"smiles": "COc1ncccc1NS(=O)(=O)c1cn(Cc2ccc(F)cc2)c2cnc(C(=O)N(C)O)cc12", "note": "[Example 53, 1-(4-fluorobenzyl)-N-hydroxy-3-{((2-methoxypyridin-3-yl)amino]sulfonyl}-N-methyl-1H-pyrrolo[2,3-c]pyridine-5-carboxamide]", "EC50": 140},
      {"smiles": "CONC(=O)c1cc2c(S(=O)(=O)N(C)CC3COCCO3)cn(Cc3ccc(F)cc3)c2cn1", "note": "(stereo not shown) [Example 54, 3-{[(1,4-dioxan-2-ylmethyl)(methyl)amino]sulfonyl}-1-(4-fluorobenzyl)-N-methoxy-1H-pyrrolo[2,3-c]pyridine-5-carboxamide]", "EC50": 48},
      {"smiles": "CONC(=O)c1cc2c(S(=O)(=O)N3CCOCC3)cn(Cc3ccc(F)cc3)c2cn1", "note": "[Example 55, 1-(4-fluorobenzyl)-N-methoxy-3-(morpholin-4-ylsulfonyl)-1H-pyrrolo[2,3-c]pyridine-5-carboxamide]", "EC50": 25},
      {"smiles": "CN(O)C(=O)c1cc2c(S(=O)(=O)N(C)CC3COCCO3)cn(Cc3ccc(F)cc3)c2cn1", "note": "(stereo not shown) [Example 56, 3-{[(1,4-dioxan-2-ylmethyl)(methyl)amino]sulfonyl}-1-(4-fluorobenzyl)-N-hydroxy-N-methyl-1H-pyrrolo[2,3-c]pyridine-5-carboxamide]", "EC50": 400},
      {"smiles": "CN(O)C(=O)c1cc2c(S(=O)(=O)N3CCOCC3)cn(Cc3ccc(F)cc3)c2cn1", "note": "[Example 57, 1-(4-fluorobenzyl)-N-hydroxy-N-methyl-3-(morpholin-4-ylsulfonyl)-1H-pyrrolo[2,3-c]pyridine-5-carboxamide]", "EC50": 480}
    ]}
  ]
}
